Where “and” joins values, the source holds several entries; their conditions need not be identical. Equal entries are not always repeated. Ends that are not written are not given here.
Assays:
[1] = molecular target: L^d molecules complexed with QL9 peptide, on the cell surface (mouse) (UniProt P01887)
[2] = molecular target: recombinant biotinylated L^d immobilized on an avidin-coated support, with QL9 peptide (mouse) (UniProt P01897)
[3] = molecular target: L^d molecules complexed with QL9 peptide, on the cell surface (mouse) (UniProt P01887); assay: cell-based or functional assay
[4] = molecular target: L^d molecules complexed with p2Ca peptide, on transfected Drosophila S2 cells (mouse) (UniProt P01887); assay: cell-based or functional assay
[5] = molecular target: T1, K^bsol (soluble H-2 K^b with murine β-2 microglobulin) (Mus musculus, UniProt P01901); assay type: binding
T1 construct: The cDNAs encoding K^b α1α2α3 domains (274 residues) and murine β-2 microglobulin (99 residues); made in house; host or cells: Drosophila S2/M3 cells, purified from culture supernatant
T1 sequence (P01901 22-295): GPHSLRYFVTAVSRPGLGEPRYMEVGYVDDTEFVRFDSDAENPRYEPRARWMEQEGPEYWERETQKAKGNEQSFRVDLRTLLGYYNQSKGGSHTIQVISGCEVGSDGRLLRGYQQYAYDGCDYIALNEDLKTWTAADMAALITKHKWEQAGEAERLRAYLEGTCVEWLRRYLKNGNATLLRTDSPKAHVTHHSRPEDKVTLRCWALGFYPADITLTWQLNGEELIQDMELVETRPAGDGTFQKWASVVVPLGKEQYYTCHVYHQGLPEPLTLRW
T1 sequence (P01887 21-119 partner): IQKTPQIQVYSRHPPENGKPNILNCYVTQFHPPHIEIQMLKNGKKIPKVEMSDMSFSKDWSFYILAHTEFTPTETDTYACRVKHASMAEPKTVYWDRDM

B3/CD8 T-cell hybridoma = assay: Antigen presentation assay with B3/CD8 T-cell hybridoma (IL-2 via CTLL 3H thymidine); assay type: cell-based, murine; details: peptide added to culture medium or protein osmotically loaded
Protocol: Osmotic loading of SC2 and 3T3 cells with ovalbumin protein was carried out as described by Moore, et al., Cell 54: 777-785 (1988). The assay procedure is as follows. In a 96-well dish, 1×10^5 Drosophila cells (with or without peptide/protein loaded) or 3T3 cells were cocultured with 1×10^5 B3/CD8 T-cell hybridoma cells in 200 μl of RPMI media supplemented with 10% fetal bovine serum. After 24 hours of incubation, 100 μl of the supernatant from these cultures was added to 100 μl of RPMI containing 5,000 CTLL cells. The cells were cocultured for 24 hours at 37° C. when 1 uCi of ^3H thymidine (Amersham) was added. After a further incubation of 15 hours at 37° C., the incorporation of radiolabel into the CTLL cells was determined by scintillation counting.
Assays conducted with murine MHC also verified that the insect cells are capable of loading peptide onto the Class I molecules. Cells expressing as few as 200-500 MHC molecules containing a particular antigen can be detected by a T-cell. […] Upon antigenic stimulation, B3/CD8 produces IL-2, measured by ^3H thymidine incorporation in IL-2-dependent T-cell line CTLL (Gillis, et al., J. Immunol. 120: 2027 91978)). Thus, by measuring the amount of IL-2 produced, one can assay for T-cell recognition. […]

HLA B27 = assay: Peptide-induced thermostabilization of HLA B27 on Drosophila cells (W6/32 cytofluorimetry); assay type: cell-based, human
Protocol: Twenty-four hours prior to FACS analysis, CuSO4 is added to the stably transfected S2 cells (3-4×10^6 cells/ml) to a final concentration of 1 mM, thereby “switching on” expression from the transfected genes. Cells are plated out in 24-well cluster dishes (2 ml per well). Eight hours prior to FACS analysis, the CuSO4 medium is replaced with fresh medium (1 ml) with or without peptide at a concentration of 50 μg/ml. 37° C. temperature challenges are carried out by transferring the dishes onto a flat surface in a 37° C. room at various time intervals prior to harvesting the cells for analysis.
To analyze surface expression of Class I MHC on the S2 cells, aliquots of cells (5×10^5) are transferred into tubes on ice, collected by centrifugation (1,000×g for 4 minutes), resuspended in 3 ml of PBS/1% BSA, 0.02% sodium azide, collected by centrifugation and resuspended in PBS/BSA (0.5 ml) containing the appropriate primary antibody (ascites fluids Y3, 28:14:8S, 30.5.7, W6/32, diluted 1:200). Rabbit antisera are diluted 1:500 and B22.293 hybridoma supernatant is used directly. After a one hour incubation on ice, cells are washed twice in 3 ml of PBS/BSA and resuspended in 0.5 ml of PBS/BSA containing FITC labeled secondary antibody (Cappell, Durham, N.C.) and 1 ng/ml propidium iodide. […] Samples are then analyzed by FACS 440 (Becton Dickinson). […]

[6] = test system: CD8^+ 2C lymph node cells; assay: Primary proliferative response of CD8+ 2C lymph node cells to peptides presented by transfected fly cells (3HTdR); assay type: cell-based, mouse; details: peptide 10 μM
Protocol: (§1) Using a standard tissue culture system (Cai, Z. and Sprent, J. (1994) J. Exp. Med. 179: 2005-2015), doses of 5×10^4 purified CD8^+ 2C lymph node (LN) cells were cultured at 37° C. with doses of 3×10^5 transfected fly cells ±peptides (10 μM final concentration). Peptides were synthesized by R. W. Johnson Pharmaceutical Research Institute (Sykulev, et al. (1994) Immunity 1: 15-22. Proliferative responses were measured by adding ^3HTdR (1 μCi/well) 8 hours prior to harvest. IL-2 production was measured by removing supernatants from the cultures at 48 hours and adding 50 μl supernatant to an IL-2 responsive indicator cell line (CTLL); proliferation of the indicator line was measured by addition of ^3HTdR. The data shown in Table 2 are the means of triplicate cultures. The transfected Drosophila S2 cells die rapidly at 37° C. and fail to incorporate ^3HTdR at this temperature.

[7] = test system: CD8^+ 2C lymph node cells; assay: IL-2 production by CD8+ 2C lymph node cells (CTLL indicator line 3HTdR); assay type: cell-based, mouse; details: peptide 10 μM
Protocol: as §1

CD8^+ 2C cells [8] = assay: CD69 and CD25 expression on CD8+ 2C cells stimulated with transfected Drosophila cells plus peptide; assay type: cell-based, mouse; details: Drosophila cells expressing L^d alone; peptide 10 μM, 12 hours
Protocol: TCR stimulation elicited a complex pattern of intracellular events which lead to early up-regulation of CD69 and CD25 (IL-2 receptor or IL-2R) on the cell surface. These changes are apparent within a few hours of stimulation and are followed by cytokine synthesis and cell proliferation. Drosophila cells were transfected with genes for L^d, L^d and B7.1 (L^d.B7), L^d and ICAM-1 (L^d.ICAM) or L^d, B7.1 and ICAM-1 (L^d.B7.1CAM). […] Purified CD8^+ 2C cells were incubated with various Drosophila cells plus a peptide (either p2Ca or QL9, 10 μM) in bulk (2 ml) culture for 12 hours and then stained for CD69 or CD25. Either p2Ca or QL9 presented by Drosophila cells transfected with L^d.B7, L^d.ICAM or L^d.B7.1CAM were effective in stimulating the up-regulation of CD69 and CD25.

CD8^+ 2C cells [9] = assay: Dose-response of day 3 proliferation of CD8+ 2C cells to peptides on transfected Drosophila APC; assay type: cell-based, mouse
Protocol: Responses to p2Ca (above) and QL9 (below) were measured by culturing 5×10^4 purified CD8^+ 2C cells with 2×10^5 Drosophila cells in the presence or absence of the indicated concentrations of peptides for 3 days. [^3H] TdR was added during the last 8 hours of culture; rIL-2 was added at a final concentration of 20 units/ml. The data are the mean of triplicate cultures. When supplemented with exogenous IL-2, however, both peptides stimulated significant proliferative responses at high doses (10 μM). The proliferative responses elicited by QL9 were far stronger than for p2Ca (note the large difference between the scales of x-axes of the upper and the lower panel).
Dose-response relationships for proliferation on day 3 elicited by Drosophila cells transfected with L^d.B7.1CAM and presenting p2Ca peptide were compared to those elicited by Drosophila cells transfected with L^d.B7, L^d.ICAM or L^d.B7.1CAM presenting QL9 peptide. Drosophila APC (2×10^5 cells) were cultured with 5×10^4 CD8^+ 2C cells for three days in the presence or absence of peptides. [^3H] TdR was added during the last 8 hours of culture; no IL-2 was added to the cultures.

2C+ T-cells [10] = assay type: cell-based, mouse
2C+ T-cells [11] = assay: Enrichment of 2C+ T-cells from a 1/99 mixture with C57BL/6 CD8+ cells (1B2 staining, flow cytofluorometry); assay type: cell-based, mouse
Protocol: 2C+ T-cells were mixed with total CD8^+ cells from C57BL/6 mice at a 1/99 ratio and cells were cultured with immobilized L^d and anti-CD28 antibody in the presence of peptide QL9. IL-2 was added at day 2 of culture, and subsequently every other day. Cell activation and proliferation was noted, as evidenced by the formation of clumps, presence of enlarged cells that progressively spread in the well. At day 12 of culture, cells were harvested and percentage of cells expressing the 2C T-cell receptor was assessed by staining with the anticlonotypic antibody 1B2 and analysis by flow cytofluorometry: 43% of the cells cultured initially in the presence of peptide QL9 were 2C+, (FIG. 22) whereas 49% of the cells expressed 2C after stimulation with peptide p2Ca (FIG. 23), and 22% with peptide SL9 (FIG. 24). […] Enrichment was observed even with SL9, a peptide that makes a low affinity complex with the 2C T-cell receptor. This method thus can specifically activate and enrich a small subpopulation of antigen specific T-cells out of a heterogenous mixture of T-cells.

[12] = molecular target: T2, soluble H-2 K^b (K^bsol): heterodimer of truncated K^b heavy chain and murine β-2 microglobulin, purified from Drosophila cells (murine), P01901
T2 chain 1: T1 sequence (P01901 22-295)
T2 chain 2: T1 sequence (P01887 21-119 partner)

Chain of L^d molecules complexed with QL9 peptide, on the cell surface (mouse) (P01897 25-362, one chain of several): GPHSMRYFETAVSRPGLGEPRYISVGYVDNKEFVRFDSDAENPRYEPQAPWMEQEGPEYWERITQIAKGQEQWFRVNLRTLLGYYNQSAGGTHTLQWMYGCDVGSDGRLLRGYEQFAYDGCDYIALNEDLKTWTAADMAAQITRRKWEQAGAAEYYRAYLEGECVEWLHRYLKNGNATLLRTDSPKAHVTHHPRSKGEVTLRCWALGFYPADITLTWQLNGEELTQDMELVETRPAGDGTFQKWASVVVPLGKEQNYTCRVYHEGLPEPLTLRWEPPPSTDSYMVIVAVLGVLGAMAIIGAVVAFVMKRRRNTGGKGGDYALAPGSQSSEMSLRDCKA
Chain of L^d molecules complexed with p2Ca peptide, on transfected Drosophila S2 cells (mouse) (P01897 25-362, one chain of several): as above
Chain of recombinant biotinylated L^d immobilized on an avidin-coated support, with QL9 peptide (mouse) (P01897 25-309): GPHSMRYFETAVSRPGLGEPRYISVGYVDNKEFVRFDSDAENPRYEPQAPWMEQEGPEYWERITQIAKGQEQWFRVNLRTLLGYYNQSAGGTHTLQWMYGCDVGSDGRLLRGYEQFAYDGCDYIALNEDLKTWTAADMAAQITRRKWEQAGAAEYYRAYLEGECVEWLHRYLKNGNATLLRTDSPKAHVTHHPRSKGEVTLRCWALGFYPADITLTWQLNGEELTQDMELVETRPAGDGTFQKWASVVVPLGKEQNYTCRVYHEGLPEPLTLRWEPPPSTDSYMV

Molecule: 2C T-cell receptor on T-cells of 2C TCR transgenic mice
- percent of the lymphocytes included in rosettes [1]: 30% and 40%
- percent of the lymphocytes included in rosettes [2]: 30% and 40%
- Proliferation (Day 3), ^3HTdR incorporation; fly cells expressing L^d [3]: 200 cpm
- Proliferation (Day 3), ^3HTdR incorporation; fly cells expressing L^d + B7.1 [3]: 60900 cpm
- Proliferation (Day 3), ^3HTdR incorporation; fly cells expressing L^d + ICAM-1 [3]: 73900 cpm
- Proliferation (Day 3), ^3HTdR incorporation; fly cells expressing L^d [4]: 200 cpm
- Proliferation (Day 3), ^3HTdR incorporation; fly cells expressing L^d + B7.1 [4]: 300 cpm
- Proliferation (Day 3), ^3HTdR incorporation; fly cells expressing L^d + ICAM-1 [4]: 1500 cpm

Molecule: EQLESIINFEKLTEWTSSNVMEER [OVA-24]
- affinity lower than that of OVA-8 [5]: more than 10,000 fold
- T-cell recognition (IL-2 response) of K^b Drosophila cells (B3/CD8 T-cell hybridoma): responded well

Molecule: FRIGCRHSR [HIV Vpr peptide]
- thermostabilization of HLA B27 surface expression (HLA B27): stabilizes B27

Molecule: ILKEPVHGV [HIV POL peptide]
- thermostabilization of HLA B27 surface expression (HLA B27): not B27

Molecule: LSPFPFDL [p2Ca]
- Proliferation (Day 3) ^3HTdR incorporation, fly cells expressing L^d ([6]; APC L^d): 0.2 cpm × 10^3
- Proliferation (Day 3) ^3HTdR incorporation, fly cells expressing L^d + B7.1 ([6]; APC L^d + B7.1): 0.3 cpm × 10^3
- Proliferation (Day 3) ^3HTdR incorporation, fly cells expressing L^d + B7.1 + ICAM-1 ([6]; APC L^d + B7.1 + ICAM-1): 142.0 cpm × 10^3
- Proliferation (Day 3) ^3HTdR incorporation, fly cells expressing L^d + ICAM-1 ([6]; APC L^d + ICAM-1): 1.5 cpm × 10^3
- Proliferation (Day 3) ^3HTdR incorporation, L^d + B7.1 combined with L^d + ICAM-1 ([6]; mixture of two APC lines): 1.5 cpm × 10^3
- IL-2 Production (Day 2) ^3HTdR incorporation, fly cells expressing L^d ([7]; APC L^d): 0.2 cpm × 10^3
- IL-2 Production (Day 2) ^3HTdR incorporation, fly cells expressing L^d + B7.1 ([7]; APC L^d + B7.1): 0.2 cpm × 10^3
- IL-2 Production (Day 2) ^3HTdR incorporation, fly cells expressing L^d + B7.1 + ICAM-1 ([7]; APC L^d + B7.1 + ICAM-1): 64.6 cpm × 10^3
- IL-2 Production (Day 2) ^3HTdR incorporation, fly cells expressing L^d + ICAM-1 ([7]; APC L^d + ICAM-1): 0.1 cpm × 10^3
- IL-2 Production (Day 2) ^3HTdR incorporation, L^d + B7.1 combined with L^d + ICAM-1 ([7]; mixture of two APC lines): 0.3 cpm × 10^3
- induction of CD69 and CD25 expression (CD8^+ 2C cells [8]): barely detectable
- proliferation of 2C CD8+ cells (CD8^+ 2C cells [9]; Drosophila cells with L^d alone, no exogenous lymphokines): failed
- peptide concentration required for optimal day 3 proliferative response (CD8^+ 2C cells [9]; L^d.B7.1CAM APC, no IL-2): 10 µM
- activation (mitogenesis) of 2C+ T-cells (2C+ T-cells [10]): able to activate
- enrichment in specific T-cells after 12 days (2C+ T-cells [11]; start 1/99): 49 times
- cells expressing the 2C T-cell receptor (2C+) at day 12 (2C+ T-cells [11]; start 1/99 2C+/total CD8+, immobilized L^d and anti-CD28, IL-2 from day 2): 49%

Molecule: ovalbumin protein: ovalbumin (Sigma Chem. Co.) osmotically loaded into the cells (EQLESIINFEKLTEWTSSNVMEER)
- T-cell recognition (IL-2 response) of K^b Drosophila cells (B3/CD8 T-cell hybridoma): no recognition

B1: [^125I]VSV-8 (radioiodinated VSV-8 peptide) (peptide)
peptide: RGYVYQGL
modifications: not checked
- percent of the total labeled peptide able to bind [12]: 65%

— patent US20030138946A1
